Source: the supplement of paper PMC4314810
± gives the standard deviation of the averaged measurements.

Tested on: MCF7
Test: HRG-induced Akt activation (dPAkt = log2 pAkt/Akt HRG-stimulated minus log2 pAkt/Akt basal) (log2 ratio difference); higher = stronger HRG-induced Akt(T308) phosphorylation
Settings: miRNA mimic concentration 10 nM; time after transfection 72 h; heregulin 10 ng/ml; stimulation time 1 h
Summary of the method: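 MCF7 cells ([…], 96-well plates) carrying one of 879 miRNA mimics, transfected at 10 nM final with Lipofectamine RNAiMax in two biological replicates, were stimulated after 72 h with 10 ng/ml heregulin-beta1 for 1 h or left unstimulated. Phospho-Akt(T308) and total Akt in cells fixed with 4% PFA were read by In-Cell Western on an Odyssey and corrected for column-wise fixation decay to give log2(pAkt/Akt). Heregulin-induced Akt activation is the replicate mean of stimulated minus unstimulated ratios.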

Sequence	HRG-induced Akt activation (log2)
UAAUGCCCCUAAAAAUCCUUAU	0.932 ± 0.16
UUACAGUUGUUCAACCAGUUACU	1.44 ± 0.019
GUGCCAGCUGCAGUGGGGGAG	0.883 ± 0.036
AGCUACAUUGUCUGCUGGGUUUC	1.72 ± 0.17
ACUGUAGUAUGGGCACUUCCAG	1.46 ± 0.29
CUGGGAGAGGGUUGUUUACUCC	0.876 ± 0.34
UGAGGUAGUAGGUUGUAUAGUU	1.26 ± 0.07
UCCAGCAUCAGUGAUUUUGUUG	1.77 ± 0.17
CCAAUAUUACUGUGCUGCUUUA	1.45 ± 0.28
UAGUACCAGUACCUUGUGUUCA	1.19 ± 0.3
CUAUACGACCUGCUGCCUUUCU	1.47 ± 0.14
CCUGGAAACACUGAGGUUGUG	1.61 ± 0.12
CAACGGAAUCCCAAAAGCAGCUG	1.51 ± 0.045
AAAAUGGUGCCCUAGUGACUACA	1.9 ± 0.43
UUCAUUCGGCUGUCCAGAUGUA	1.48 ± 0.1
CGGCAACAAGAAACUGCCUGAG	1.46 ± 0.68
CAAAGCGCUUCUCUUUAGAGUGU	0.7 ± 0.83
CACCAGGCAUUGUGGUCUCC	2.13 ± 0.28
AUAAGACGAACAAAAGGUUUGU	1.75 ± 0.072
AAAGUGCAUCUUUUUAGAGGAU	0.724 ± 0.058
ACCCUAUCAAUAUUGUCUCUGC	1.33 ± 0.23
ACUGCAGUGAAGGCACUUGUAG	1.646 ± 0.0061
AUGGAGAUAGAUAUAGAAAU	1.51 ± 0.11
UAAGGCACCCUUCUGAGUAGA	1.51 ± 0.1

Sequence	HRG-induced Akt activation (log2)
UGAUAUGUUUGAUAUAUUAGGU	1.52 ± 0.077
UUAGGGCCCUGGCUCCAUCUCC	1.954 ± 0.014
AUCAUGAUGGGCUCCUCGGUGU	1.41 ± 0.22
UGUGACUGGUUGACCAGAGGGG	1.6 ± 0.2
AUGAUCCAGGAACCUGCCUCU	2.49 ± 0.056
CUCCAGAGGGAUGCACUUUCU	1.83 ± 0.3
UAUUGCACUCGUCCCGGCCUCC	1.33 ± 0.043
ACAAAGUGCUUCCCUUUAGAGU	1.75 ± 0.12
GGGGAGCUGUGGAAGCAGUA	1.73 ± 0.21
AAGUAGUUGGUUUGUAUGAGAUGGUU	1.424 ± 0.014
GUGAGUCUCUAAGAAAAGAGGA	1.56 ± 0.38
CACGCUCAUGCACACACCCACA	1.68 ± 0.14
AGGGACGGGACGCGGUGCAGUG	1.15 ± 0.12
UGAGGUAGGAGGUUGUAUAGUU	1.11 ± 0.083
UAUGUAACAUGGUCCACUAACU	1.97 ± 0.17
CAUUGCACUUGUCUCGGUCUGA	1.74 ± 0.8
CACUGUAGGUGAUGGUGAGAGUGGGCA	1.51 ± 0.23
AUCACACAAAGGCAACUUUUGU	1.78 ± 0.33
CACAUUACACGGUCGACCUCU	1.173 ± 0.0052
GAAUGUUGCUCGGUGAACCCCU	1.33 ± 0.039
AAACCGUUACCAUUACUGAGUU	1.22 ± 0.2
UAGGCAGUGUCAUUAGCUGAUUG	1.69 ± 0.15
CAUCAUCGUCUCAAAUGAGUCU	1.91 ± 0.32
UCUAGUAAGAGUGGCAGUCGA	1.322 ± 0.0056

Sequence	HRG-induced Akt activation (log2)
AGUUCUUCAGUGGCAAGCUUUA	0.966 ± 0.66
AGAAGGAAAUUGAAUUCAUUUA	2.39 ± 0.29
AGGCUGCGGAAUUCAGGAC	1.56 ± 0.23
AGGAUGAGCAAAGAAAGUAGAUU	1.13 ± 0.25
UGUGAGGUUGGCAUUGUUGUCU	2.02 ± 0.55
GUGUCUGGGCGGACAGCUGC	1.87 ± 0.23
AAAGCGCUUCCCUUCAGAGUG	1.53 ± 0.33
UAACUGGUUGAACAACUGAACC	1.93 ± 0.54
UAUGUAACACGGUCCACUAACC	1.73 ± 0.081
CUAGUGAGGGACAGAACCAGGAUUC	1.82 ± 0.032
UUGAGAAGGAGGCUGCUG	1.18 ± 0.17
UCAUAGCCCUGUACAAUGCUGCU	1.697 ± 0.0055
CGCGGGUGCUUACUGACCCUU	3.25 ± 0.033
UCAUAUUGCUUCUUUCU	1.79 ± 0.17
AUAAAGCUAGAUAACCGAAAGU	2.04 ± 0.33
AGGAAUGUUCCUUCUUUGCC	1.91 ± 0.039
AACAUAGAGGAAAUUCCACGU	1.17 ± 0.5
UAGCACCAUCUGAAAUCGGUUA	1.24 ± 0.077
CUGGAUGGCUCCUCCAUGUCU	1.96 ± 0.42
AAGGAGCUCACAGUCUAUUGAG	1.97 ± 0.2
AGCAGAAGCAGGGAGGUUCUCCCA	1.55 ± 0.054
AGGCACCAGCCAGGCAUUGCUCAGC	1.51 ± 0.2
